Measured values reported in ChEMBL document CHEMBL1124541, “Antibacterials. Synthesis and structure-activity studies of 3-aryl-2-oxooxazolidines. 1. The "B" group” (1989).
≈ marks a conversion by molar mass, not a printed value.

Tests used:
Staphylococcus aureus [1] = assay: In vitro minimum inhibitory concentration against Staphylococcus aureus (SFCO-1a); type: functional
Enterococcus faecalis [2] = assay: In vitro minimum inhibitory concentration against Enterococcus faecalis (STCO-19); type: functional
Enterococcus faecalis [3] = tested on: Enterococcus faecalis
Staphylococcus aureus [4] = tested on: Staphylococcus aureus

Compound	MIC (Staphylococcus aureus [1]) [µg/mL]	MIC (Enterococcus faecalis [2]) [µg/mL]	MIC (Enterococcus faecalis [3]) [µg/mL]	MIC (Staphylococcus aureus [4]) [µg/mL]
CC(=O)c1ccc(N2CC(C)OC2=O)cc1 (stereo not given)	> 128	> 128		
CC(C)c1ccc(N2CC(CO)OC2=O)cc1 (stereo not given)	64 (≈ 272 µM)	32 (≈ 136 µM)		
CC(=O)c1ccc(N2C[C@H](CNC(=O)CSC#N)OC2=O)cc1	32 (≈ 96 µM)	32 (≈ 96 µM)		
CS(=O)(=O)c1ccc(N2CC(CN)OC2=O)cc1 (stereo not given)	> 128	> 128		
CC(=O)c1ccc(N2CC(CN3C(=O)c4ccccc4C3=O)OC2=O)cc1 (stereo not given)	> 128	> 128		
CS(=O)(=O)c1ccc(N2CC(CCl)OC2=O)cc1 (stereo not given)	8 (≈ 27.6 µM)	4 (≈ 13.8 µM)		
COC(=O)NC[C@H]1CN(c2ccc(C(C)=O)cc2)C(=O)O1	4 (≈ 13.7 µM)	4 (≈ 13.7 µM)		
CC(=O)c1ccc(N2C[C@H](CNC(=O)C(Cl)Cl)OC2=O)cc1	2 (≈ 5.79 µM)	2 (≈ 5.79 µM)		
CS(=O)(=O)c1ccc(N2CC(CN=[N+]=[N-])OC2=O)cc1 (stereo not given)	16 (≈ 54 µM)	8 (≈ 27 µM)		
C=CC1CN(c2ccc(C(C)=O)cc2)C(=O)O1 (stereo not given)	> 128	> 128		
C[S+]([O-])c1ccc(N2CC(CCl)OC2=O)cc1 (stereo not given)	32 (≈ 117 µM)	32 (≈ 117 µM)		
CC(=O)c1ccc(N2C[C@H](CNC(=O)CC#N)OC2=O)cc1	16 (≈ 53.1 µM)	8 (≈ 26.6 µM)		
COC(=O)c1nnn(CC2CN(c3ccc(C(C)=O)cc3)C(=O)O2)c1C(=O)OC (stereo not given)	> 128	> 128		
CC(=O)NCC(=O)NC[C@H]1CN(c2ccc(C(C)=O)cc2)C(=O)O1	128 (≈ 384 µM)	> 128		
GENTAMICIN			16	0.25
CC(=O)c1ccc(N2C[C@H](CNC(=O)OC(C)(C)C)OC2=O)cc1	128 (≈ 383 µM)	128 (≈ 383 µM)		
CC(=O)c1ccc(N2C[C@H](CNC(=O)N(C)C)OC2=O)cc1	128 (≈ 419 µM)	128 (≈ 419 µM)		
CC(C)c1ccc(N2CC(CN=[N+]=[N-])OC2=O)cc1 (stereo not given)	> 128	> 128		
CC(C)c1ccc(N2CC(CCl)OC2=O)cc1 (stereo not given)	64 (≈ 252 µM)	64 (≈ 252 µM)		
NS(=O)(=O)c1ccc(N2CC(CCl)OC2=O)cc1 (stereo not given)	16 (≈ 55 µM)	> 128		

Compound	MIC (Staphylococcus aureus [1]) [µg/mL]	MIC (Enterococcus faecalis [2]) [µg/mL]	MIC (Enterococcus faecalis [3]) [µg/mL]	MIC (Staphylococcus aureus [4]) [µg/mL]
CC1CN(c2ccc(S(C)(=O)=O)cc2)C(=O)O1 (stereo not given)	64 (≈ 251 µM)	128 (≈ 501 µM)		
CC1CN(c2ccc(C(C)C)cc2)C(=O)O1 (stereo not given)	128 (≈ 584 µM)	128 (≈ 584 µM)		
CC(=O)c1ccc(N2CC(CN3CCOCC3)OC2=O)cc1 (stereo not given)	> 128	> 128		
CC(=O)NC[C@H]1CN(c2ccc(C(C)=O)cc2)C(=O)O1 [DUP-721]	0.5 (≈ 1.81 µM)	1 (≈ 3.62 µM)		
CS(=O)(=O)c1ccc(N2CC(CO)OC2=O)cc1 (stereo not given)	16 (≈ 59 µM)	16 (≈ 59 µM)		
CN[C@H](CC(C)C)C(=O)N[C@H]1C(=O)N[C@@H](CC(N)=O)C(=O)N[C@H]2C(=O)N[C@H]3C(=O)N[C@H](C(=O)N[C@H](C(=O)O)c4cc(O)cc(O)c4-c4cc3ccc4O)[C@H](O)c3ccc(c(Cl)c3)Oc3cc2cc(c3O[C@@H]2O[C@H](CO)[C@@H](O)[C@H](O)[C@H]2O[C@H]2C[C@](C)(N)[C@H](O)[C@H](C)O2)Oc2ccc(cc2Cl)[C@H]1O [VANCOMYCIN]		2 (≈ 1.38 µM)		
CC(=O)CC(=O)NC[C@H]1CN(c2ccc(C(C)=O)cc2)C(=O)O1	8 (≈ 25.1 µM)	16 (≈ 50.3 µM)		
CC(=O)NCC1CN(c2ccc(C(C)C)cc2)C(=O)O1 (stereo not given)	4 (≈ 14.5 µM)	4 (≈ 14.5 µM)		
CC(=O)NCC1CN(c2ccc(S(C)(=O)=O)cc2)C(=O)O1 (stereo not given)	4 (≈ 12.8 µM)	4 (≈ 12.8 µM)		
CC(=O)NCC1CN(c2ccc([S+](C)[O-])cc2)C(=O)O1 (stereo not given)	4 (≈ 13.5 µM)	4 (≈ 13.5 µM)		
CCC1CN(c2ccc(C(C)C)cc2)C(=O)O1 (stereo not given)	> 128	> 128		
CC(=O)c1ccc(N2CC(CN)OC2=O)cc1.Cl (stereo not given)	> 128	> 128		
CC1=C(C(=O)O)N2C(=O)[C@@H](NC(=O)[C@H](N)c3ccccc3)[C@H]2SC1 [CEPHALEXIN ANHYDROUS]	0.5 (≈ 1.44 µM)	64 (≈ 184 µM)		
[N-]=[N+]=NCC1CN(c2ccc(S(N)(=O)=O)cc2)C(=O)O1 (stereo not given)	32 (≈ 108 µM)	64 (≈ 215 µM)		
CC(=O)c1ccc(N2C[C@H](CNC(N)=O)OC2=O)cc1	4 (≈ 14.4 µM)	1 (≈ 3.61 µM)		
CC(=O)c1ccc(N2CC(COS(=O)(=O)c3ccc(C)cc3)OC2=O)cc1 (stereo not given)	8 (≈ 20.5 µM)	8 (≈ 20.5 µM)		
CCC(=O)NC[C@H]1CN(c2ccc(C(C)=O)cc2)C(=O)O1	4 (≈ 13.8 µM)	4 (≈ 13.8 µM)		
CSc1ccc(N2CC(CO)OC2=O)cc1 (stereo not given)	128 (≈ 535 µM)	128 (≈ 535 µM)		
CCCC(=O)OCC1CN(c2ccc(C(C)=O)cc2)C(=O)O1 (stereo not given)	64 (≈ 210 µM)	> 128		
CC(=O)c1ccc(N2C[C@H](CNC(=O)C(C)C)OC2=O)cc1	8 (≈ 26.3 µM)	16 (≈ 52.6 µM)		

Compound	MIC (Staphylococcus aureus [1]) [µg/mL]	MIC (Enterococcus faecalis [2]) [µg/mL]	MIC (Enterococcus faecalis [3]) [µg/mL]	MIC (Staphylococcus aureus [4]) [µg/mL]
CC(=O)c1ccc(N2CC(COP(=O)(O)O)OC2=O)cc1 (stereo not given)	> 128	> 128		
CC(=O)NCC1CN(c2ccc(S(N)(=O)=O)cc2)C(=O)O1 (stereo not given)	32 (≈ 102 µM)	16 (≈ 51.1 µM)		
CCC1CN(c2ccc(S(C)(=O)=O)cc2)C(=O)O1 (stereo not given)	128 (≈ 475 µM)	128 (≈ 475 µM)		
CC(=O)c1ccc(N2CC(CO)OC2=O)cc1 (stereo not given)	16 (≈ 68 µM)	16 (≈ 68 µM)		
CC(=O)c1ccc(N2CC(CCl)OC2=O)cc1 (stereo not given)	32 (≈ 126 µM)	64 (≈ 252 µM)		
CSc1ccc(N2CC(C)OC2=O)cc1 (stereo not given)	> 128	> 128		
CC(=O)c1ccc(N2CC(CN=[N+]=[N-])OC2=O)cc1 (stereo not given)	> 128	> 128		
NS(=O)(=O)c1ccc(N2CC(CO)OC2=O)cc1 (stereo not given)	128 (≈ 470 µM)	128 (≈ 470 µM)		
CCCC(=O)NC[C@H]1CN(c2ccc(C(C)=O)cc2)C(=O)O1	8 (≈ 26.3 µM)	8 (≈ 26.3 µM)		
CSc1ccc(N2CC(CNC(C)=O)OC2=O)cc1 (stereo not given)	4 (≈ 14.3 µM)	4 (≈ 14.3 µM)		
CSc1ccc(N2CC(CCl)OC2=O)cc1 (stereo not given)	> 128	> 128		
COCC(=O)NC[C@H]1CN(c2ccc(C(C)=O)cc2)C(=O)O1	32 (≈ 104 µM)	32 (≈ 104 µM)		
C[S+]([O-])c1ccc(N2CC(CO)OC2=O)cc1 (stereo not given)	64 (≈ 251 µM)	64 (≈ 251 µM)		
CC(=O)c1ccc(N2CC(CN)OC2=O)cc1 (stereo not given)	> 128	> 128		
CC(=O)c1ccc(N2CC(CF)OC2=O)cc1 (stereo not given)	64 (≈ 270 µM)	128 (≈ 540 µM)		
CC(=O)c1ccc(N2C[C@H](CNC(=O)C3CC3)OC2=O)cc1	8 (≈ 26.5 µM)	4 (≈ 13.2 µM)		
CC(=O)c1ccc(N2C[C@H](CNC=O)OC2=O)cc1	4 (≈ 15.3 µM)	8 (≈ 30.5 µM)		
CC(=O)OCC1CN(c2ccc(C(C)C)cc2)C(=O)O1 (stereo not given)	128 (≈ 462 µM)	128 (≈ 462 µM)		
